Experimental data from PMC5290737, “Surface mediated cooperative interactions of drugs enhance mechanical forces for antibiotic action” (Scientific Reports, 2017).
In brackets after ≈: the same amount, converted by molar mass. Like-named read-outs stand apart in the source and are kept apart here.

Columns and labels:
[1] = test system: vancomycin-susceptible receptor (VSR); experiment: Cantilever surface stress assay, antibiotic binding to surface-bound VSR; settings: for mechanical response (in words): 3 μM drug against VSR; for Kd: VSR on cantilever, fit of equation (2); for maximum stress data, Mean / Mean difference of stress, VSR versus VRR: 4 chips; for maximum stress data, Mean: one-way ANOVA table S5; for mechanical force (F = kΔz): against VSR on the cantilever, Fig. 6b (10 μM); for Mean difference of stress, VSR versus VRR: independent samples t-test, table S6; for mechanical response, free end deflection: Van 1000 μM against VSR
Description: (§1) To probe different pathways of signal-transduction central to the efficacy of recognition mechanisms and therapeutic agents, we used cantilever force-based technology. Because of its nanometre strain sensitivity, this technology can directly measure the smallest changes in mechanical strain caused by specific antibiotic binding. The principles of force transduction and measurements are well established[18][19][20] and many studies focused on cantilever sensors have been published. Unlike conventional methods such as 1H–NMR spectroscopy, enzyme-linked immunosorbent assays (ELISA)[29] or surface plasmon resonance (SPR)[30] which measure optical signatures of chemical binding, cantilever technology has the capacity to resolve forces at the level of individual hydrogen bonds, making it uniquely suited to provide important insight into force transduction mechanisms, such as cell wall strain in response to antibiotic binding. Moreover, in contrast to direct current or low-frequency signals, which cannot probe beyond electrical double layers formed by screening salts, mechanical signaling is sensitive to ligands even when they are located at distance of ~1 nm or more from the sensor surface (Fig. 1d). Measurements were performed using cantilevers functionalized with self-assembled monolayers (SAM) of VSR, VRR or reference polyethylene glycol (PEG) (see methods & materials, Supplementary Information). The specificity of mechanical signaling was achieved by performing measurements in differential mode, where the bending response of the reference PEG-coated cantilevers, (known to reduce nonspecific drug adsorption[8][14][34]) was subtracted from VSR- and VRR-coated cantilever signals (see cantilever measurement procedure, method section).
(§2) Thus far, we have discussed the impact of near-membrane layer on the association kinetics, mechanical force transduction, specificity of molecular recognition and microbial susceptibility. To gain mechanistic insight (Fig. 7a,b), we averaged measurements for each drug-target interaction over four separate chips and the results are summarized in Fig. 7c,d. […] The mechanical signaling response follows an s-shaped curve undergoing its steepest rise at N ~1/Ksurf before reaching a plateau when the binding sites are fully occupied (Fig. 7c,d). To calculate Ksurf, we used equation (2)[14], based on the conventional Hill adsorption model.
(§3) Here, Ksurf is raised to the power n to ensure that it maintains the dimension of concentration as n varies. Setting n = 1 yields the Langmuir isotherm where the reactions occur independently, while n > 1 corresponds to positive co-operative polyvalent interactions and n < 1 is a measure of negative co-operativity. In Fig. 7c,d, we find that the mechanical response at VSR levels off at 50 μM concentration for all antibiotics. In contrast, for the drug-resistant VRR a concentration of more than 1000 μM of Van, Rist or CE was required to reach indistinguishable maximum signals. The outcome of the fit using three parameters (n, Ksurf and σmax) is summarized in Supplementary Fig. 2. The calculated Ksurf for Ori binding to VSR is 40 ± 10 nM, which is 25 times stronger than for Van where Ksurf is 1.0 ± 0.3 μM. The Ksurf of Ori against VRR is 70 ± 10 nM, an astonishing 11,000 times stronger than for Van where Ksurf is 800 ± 300 μM. As a further measurement control and to confirm the accuracy of surface binding affinity, we used a commercially available SPR method (Fig. 7e,f and Supplementary SPR sensor chip functionalization procedure), where the detection of ligands is at a single planar metal surface.
(§4) The modified cantilever chip was mounted in a sealed liquid cell. The alignment of each light source onto the free end of each cantilever was confirmed by heating liquid chamber to 1 °C rise. […]

[2] = test system: vancomycin-resistant receptor (VRR); experiment: Cantilever surface stress assay, antibiotic binding to surface-bound VRR; settings: for mechanical response (in words): 3 μM drug against VRR; for compressive surface stress: 10 μM antibiotic against VRR; for Kd: fit of equation (2); for maximum stress data, Mean: 4 chips, one-way ANOVA table S4
Description: as §1, §2, §3, §4

[3] = test system: vancomycin resistant E. faecalis (VRE); settings: absence of polysorbate-80; ref. 2 (Van), ref. 5 (Rist, CE), ref. 9 (Ori), supplementary references; cited from earlier work
[4] = target: vancomycin-susceptible receptor (VSR); experiment: Surface plasmon resonance (SPR) binding to VSR; settings: T100 BIAcore, fit of equation (2), read-out: Ksurf SPR
Method: The SPR sensor chip functionalization procedure is summarized (see methods & materials Supplementary Information) while the measurement protocol has been described previously. In brief we used a T100 BIAcore SPR instrument in which a series of binding analyses for Van was performed. […] The corresponding SPR response signals featured an S-shaped curve, with a steep rise, then a plateau when Van concentration was increased beyond 50 μM (Fig. 7e,f). The resulting SPR differential response signals in sodium phosphate buffer solution for 0.1 μM, 0.5 μM, 2 μM, 8 μM and 128 μM were then computed using equation (2) to calculate the surface thermodynamic equilibrium dissociation constant, Ksurf of drug-target interactions.
Surface plasmon resonance (SPR) sensor chip functionalization procedure. We applied the same cantilever functionalization procedure to the SPR sensor chip functionalization. […]
The differential stress measurements obtained from cantilever chips are typically associated with multiple parameters including number of repeated measurements, concentration and the number of cantilevers where each array has eight individual cantilevers. The statistical analysis was found to be essential for replacing a vast quantity of data with numbers such as the averages and standard deviations. […]

[5] = target: vancomycin-resistant receptor (VRR); settings: ref. 3 (Van), ref. 5 (Rist), ref. 4 (CE), supplementary references, read-out: Ksurf SPR; cited from earlier work
[6] = test system: Staphylococcus aureus, enterococcus faecalis and enterococcus faecium; parameters: method as in PMID 19369269; settings: cited from earlier work
[7] = pH 7.4 sodium phosphate buffer, read-out: Ksurf Cantilever (surface equilibrium dissociation constant)
[8] = VRR on cantilever, pH 7.4 sodium phosphate buffer, read-out: Ksurf Cantilever (surface equilibrium dissociation constant)

Structure (SMILES)	mechanical response (in words) [1]	Kd [1, 7]	maximum stress data, Mean ([1]; VSR)	mechanical force (F = kΔz) [1]	Mean difference of stress, VSR versus VRR [1]	mechanical response (in words) [2]	compressive surface stress [2]	Kd [2, 8]	maximum stress data, Mean ([2]; VRR)	MIC VRE [3]	other results
CN[C@H](CC(C)C)C(=O)N[C@H]1C(=O)N[C@@H](CC(N)=O)C(=O)N[C@H]2C(=O)N[C@H]3C(=O)N[C@H](C(=O)N[C@H](C(=O)O)c4cc(O)cc(O)c4-c4cc3ccc4O)[C@H](O[C@H]3C[C@](C)(N)[C@@H](O)[C@H](C)O3)c3ccc(c(Cl)c3)Oc3cc2cc(c3O[C@@H]2O[C@H](CO)[C@@H](O)[C@H](O)[C@H]2O[C@H]2C[C@](C)(NCc3ccc(-c4ccc(Cl)cc4)cc3)[C@@H](O)[C@H](C)O2)Oc2ccc(cc2Cl)[C@H]1O [Ori, oritavancin]	significantly large mechanical response	40 ± 10 nM	33.8	~ 3.6 nN	13.2	significantly large mechanical response	~ 23 mNm^−1	70 ± 10 nM	20.6	0.25 to 2 µg/mL	Kd ([1]; read-out: Ksurf (cantilever)): 40 ± 10 nM; Ksurf of Ori against VSR, times stronger than for Van ([1]; ratio of cantilever Ksurf, VSR): 25 times; Kd ([2]; VRR (drug-resistant target) on cantilever, read-out: Ksurf (cantilever)): 70 nM; Ksurf of Ori against VRR, times stronger than for Van ([2]; ratio of cantilever Ksurf, VRR): 11,000 times; deleterious force sensitivity s = σeq/n ([2]; σeq = 23 mNm^−1, n ~10^11 receptor molecules per cantilever): ~ 20 fNm^−1
CN[C@H](CC(C)C)C(=O)N[C@H]1C(=O)N[C@@H](CC(N)=O)C(=O)N[C@H]2C(=O)N[C@H]3C(=O)N[C@H](C(=O)N[C@H](C(=O)O)c4cc(O)cc(O)c4-c4cc3ccc4O)[C@H](O)c3ccc(c(Cl)c3)Oc3cc2cc(c3O[C@@H]2O[C@H](CO)[C@@H](O)[C@H](O)[C@H]2O[C@H]2C[C@](C)(N)[C@H](O)[C@H](C)O2)Oc2ccc(cc2Cl)[C@H]1O [Van, vancomycin]	reduced overall stress transduction	1000 ± 300 nM	33.5	~ 3 nN	26.1	no effect	~ 0.4 mNm^−1	800000 nM	7.4	512 µg/mL (≈ 353 µM)	mechanical response, free end deflection ([1]; near-membrane layer thickness ~1 nm): ~ 220 nm; mechanical response, free end deflection ([1]; near-membrane layer thickness ~50 nm): ~ 150 nm; concentration required to reach indistinguishable maximum signals ([2]; VRR): more than 1000 μM; Kd [4]: 1100 ± 400 nM; Kd [5]: 526000 nM; time–kill kinetics [6]: 6 to 24 h
